Reference: US9688687B2, “Polymorphic forms of icotinib phosphate and uses thereof” (BETTA PHARMACEUTICALS CO., LTD., priority 2013, dated 2017)
Counter-ions that a name gives are not always drawn. Like-named read-outs stand apart in the source and are kept apart here.

Experiment: Pharmacokinetic study of Icotinib hydrochloride and Polymorph Form II of Icotinib phosphate, oral suspension in fasted SD rats
Assay type: in vivo
Details: dose equivalent to 50 mg/kg Icotinib, plasma; for AUC(0-t): read-out: AUC(0-24)
Source text: Drugs and reagents: The Icotinib hydrochloride used in this study was of Crystalline Form I disclosed by the WO2010/003313. Polymorph Form II of Icotinib phosphate and Icotinib hydrochloride were ground to fine particles. The material content (purity) was not less than 99.0%. Sodium carboxymethyl cellulose was medical supply graded.
Experimental animals: SD rats were divided to an Icotinib hydrochloride group and a Polymorph Form II group, with both groups consisting of half males and half females.
Pharmaceutical preparation: the amount of each compound was weighed and then sodium carboxymethyl cellulose was added to result in the test compound's concentration of 0.5%. The solid mixture was then added to prepare a suspension thereof at a final concentration of […] in water.
Administration and sample collection: each suspension was administered orally to fasted SD rats at a dose equivalent to 50 mg/kg Icotinib in a dose volume of 5 ml/kg. 0.4 ml of blood was collected in EDTA-K pre anticoagulant tubes at time intervals of 0.5, 1, 1.5, 2, 4, 6, 8 and 24 hrs after the administration of the test compound, centrifuged at 3000 rpm for 10 minutes, and 120 μL plasma was collected and kept in cold storage.
Samples were analyzed by high performance liquid chromatography. The chromatographic conditions utilized C18-silane bonded silica as stationary phase, 0.02 mol/L of sodium dihydrogen phosphate in […] (40:60, using sodium hydroxide solution to adjust pH to 5.0) as the mobile phase and a detection wavelength of 334 nm. PK profile comparison of Crystalline Form I of Icotinib Hydrochloride and Polymorph Form II of Icotinib phosphate was summarized in Table 1 and FIG. 5.

[1] = male, SD, rat, po, 50 mg/kg, male SD rats
[2] = female, SD, rat, po, 50 mg/kg, female SD rats

Compound	AUC(0-24) (female SD rats) [mg·h/L]	AUC(0-∞) (female SD rats) [mg·h/L]	Cmax (female SD rats) [ng/mL]	T1/2 (female SD rats) [h]	Tmax (female SD rats) [h]	T1/2 (male SD rats) [h]	Tmax (male SD rats) [h]	AUC(0-inf) [1] [ng·h/mL]	AUC(0-t) [1] [ng·h/mL]	T1/2 (female SD rats, hydrochloride) [h]	AUC(0-inf) [2] [ng·h/mL]	AUC(0-t) [2] [ng·h/mL]	Cmax (female, SD, rat, po, 50 mg/kg, female SD rats, read-out: Cmax) [ng/mL]	Tmax (female, SD, rat, po, 50 mg/kg, female SD rats, read-out: Tmax) [h]	AUC(0-24) (male SD rats, hydrochloride) [mg·h/L]	AUC(0-∞) (male SD rats, hydrochloride) [mg·h/L]	half-life [1] [min]	Cmax (male, SD, rat, po, 50 mg/kg, male SD rats, read-out: Cmax) [ng/mL]	Tmax (male, SD, rat, po, 50 mg/kg, male SD rats, read-out: Tmax) [h]
C#Cc1cccc(Nc2ncnc3cc4c(cc23)OCCOCCOCCO4)c1 [Icotinib Phosphate polymorph form II, Icotinib phosphate]	155.2 ± 20.2	156.7 ± 17.8	13100 ± 2400	2.9 ± 0.4	4.7 ± 1.2	2.6 ± 0.2	2.3 ± 1.5	28700 ± 8100	28600 ± 8100										
C#Cc1cccc(Nc2ncnc3cc4c(cc23)OCCOCCOCCO4)c1 [Icotinib hydrochloride]										6.2 ± 3.5	124000 ± 13000	113000 ± 24000	10200 ± 1900	3 ± 1.7	19.0 ± 7.1	19.1 ± 7.2	174 ± 24	3400 ± 400	2.3 ± 3.2
